Measurements as given in paper PMC8869097, “Benzothiazole Derivatives as Multifunctional Antioxidant Agents for Skin Damage: Structure–Activity Relationship of a Scaffold Bearing a Five-Membered Ring System” (Antioxidants, 2022).

What was measured:
[1] = system: Trichophyton mentagrophytes; experiment: Antidermatophyte activity, plaque growth inhibition; format: cell-based, Trichophyton mentagrophytes CBS 160.66; conditions: 100 μg/mL, SDA, read-out: % Inhibition Growth T. mentagrophytes
Method: (§1) The dermatophytes used in this study were Epidermophyton floccosum var. floccosum (Netherlands) CBS 358.93 strain, Trichophyton tonsurans (Netherlands) CBS 483.76 strain, Trichophyton mentagrophytes (Netherlands) CBS 160.66 strain, Microsporum canis (Iran) CBS 131,110 strain, and Microsporum gypseum (Iran) CBS 130,948 strain. All dermatophytes were maintained at 4 °C as agar slants on SDA. Candida albicans (ATCC 10231) was maintained at 4 °C on SDA plate.
(§2) The in vitro antifungal activity against the five selected dermatophytes was evaluated, as previously described, using the plaque growth inhibition method. All compounds were evaluated at the final concentration of 100 µg/mL. The percentages of growth inhibition according to Equation (5) were calculated as the average of three different experiments. I = [(C − T)/C] × 100%,(5) where I is the percentage value of growth inhibition, C is the measure of the diameter of the control circular mycelial inoculum (mm) and T is the extended diameter of the treated mycelial inoculum (mm).
(§3) All synthesized benzothiazole derivatives were evaluated to evaluate their in vitro antifungal activity against the five pathogenic dermatophytes that cause the most common dermatomycoses: Microsporum gypseum, Microsporum canis, Trichophyton mentagrophytes, Trichophyton tonsurans and Epidermophyton floccosum. All compounds were tested at a concentration of 100 µg/mL in DMSO, to evaluate the ability to inhibit the growth of dermatophyte cultures in Sabouraud Dextrose Agar (SDA). Briefly, room temperature incubation was performed and dermatophyte inhibition assessed by measuring the colony diameter at each disc for 7 days. The results are shown in Table 3 and were determined as the average of three different experiments.

Trichophyton tonsurans = experiment: as above; format: cell-based, Trichophyton tonsurans CBS 483.76; conditions: 100 μg/mL, SDA, read-out: % Inhibition Growth T. tonsurans
Method: as §1, §2, §3

CEM cells = experiment: Antiproliferative activity; format: cell-based; conditions: Homo sapiens, CCRF-CEM
Method: (§4) Human cervical carcinoma (HeLa) and human CD4+T-lymphoblast (CEM) cells were obtained from ATCC (Middlesex, UK). Human pancreatic carcinoma (Mia-Paca 2) cells were kindly provided by Prof. Anna Karlsson (Karolinska Institute, Stockholm, Sweden). All cell lines were grown in Dulbecco’s modified Eagle’s medium (DMEM; Gibco, Carlsbad, CA, USA), supplemented with 10% fetal bovine serum (FBS, Gibso), 0.01M Hepes (Gibco) and 1 mM sodium pyruvate (Gibco) in a humidified 5% CO2 incubator at 37 °C.
(§5) The cell suspensions of CEM, HeLa and Mia-Paca2 were treated with increasing concentrations of the selected compounds, following the protocol previously reported.
(§6) A stock solution of the compounds (20 mM in DMSO) was prepared and stored at −18 °C. Then, the compounds were diluted in the cell culture medium and tested starting with the 100 µM concentration as the upper limit. The application of equation (6) allowed to obtain the values of IC50. C1 − [50 − N1%/N2% − N1%] − (C1 − C2),(6) where C1 is the concentration of the compound which inhibits cell proliferation by more than 50%; C2 is the concentration of the compound which inhibits cell proliferation below 50%; N1% represents the number of cells (expressed as a percentage of control without compound) obtained in the presence of C1 and N2% represents the number of cells (as a percentage of control without compound) obtained in the presence of C2.
(§7) Finally, the compounds of this series of benzothiazole derivatives were tested to evaluate their antiproliferative activity in vitro against human T-cell leukemia cell line (CEM), human cervical carcinoma cells (HeLa), human pancreas cancer cells (Mia Paca-2) and human melanoma cells (SK-Mel 5). Non-cancerous HEK293T cells (Normal Kidney Epithelial Cells) were chosen as a control for cytotoxicity and/or selectivity. The results obtained have been summarized in Table 5 (data shown only for the active compounds) and are expressed as IC50 values in μM. The selectivity index (SI) was also reported, determined by comparing the values of IC50 (μM) obtained on healthy cells (HEK 293) with that obtained on tumor cells (CEM, HeLa, Mia-Paca-2 and SK- Mel 5) (Table 5).

HeLa cells = experiment: Antiproliferative activity; format: cell-based; conditions: Homo sapiens
Method: as §4, §5, §6, §7

Mia-Paca2 cells = experiment: Antiproliferative activity; format: cell-based; conditions: Homo sapiens, MIA PaCa-2
Method: as §4, §5, §6, §7

SK-Mel 5 cells = experiment: Antiproliferative activity; format: cell-based; conditions: Homo sapiens, read-out: IC50 SK-Mel5
Method: as §6, §7

HEK293T cells = experiment: Cytotoxicity on non-cancerous control cells; format: cell-based; conditions: Homo sapiens, HEK-293T, read-out: IC50 Hek293
Method: as §6, §7

[2] = UV spectra of compounds in solution (filtering parameters); format: physicochemical
Method: The evaluation of the sun protection parameters has been carried out using a UV-Vis spectrophotometer. The absorbance of the solutions of the test compounds dissolved in the different solvents (DMSO, MeOH, DMSO–H2O 4:6, DMSO–H2O 6:4, HE) at a concentration of 0.0015 (±0.000005)% was recorded in the range 290–400 nm using a 1 cm quartz cell at 1 nm intervals. It was decided to evaluate the profile of the compounds in the Peg-7 Glyceryl Cocoate (HE) oil, which is the emollient of choice to solubilize the compounds in a formulation suitable for in vivo analysis. Wavelength absorbance is in relationship with transmittance (T (λ)) from Equation (2) A (λ) = […](2) where T (λ) is the fraction of incident irradiance that is transmitted through a sample.
The three parameters were determined, respectively, in DMSO and in methanol in order to perform a comparison (Table S1).
Since DMSO is a solvent with characteristics very close to those of an oil, the analysis was also carried out in solutions that mimic the possible conditions of a formulation. For this reason, the 4:6 and 6:4 proportions of DMSO–H2O were chosen to evaluate the choice of an oil-in-water or water-in-oil emulsion.

Row | SMILES | IC50 (HeLa cells) [µM] | IC50 (Mia-Paca2 cells) [µM] | IC50 (SK-Mel 5 cells) [µM] | A (absorbance) ([2]; DMSO) | ε (molar extinction coefficient) ([2]; DMSO) | λmax ([2]; DMSO) [nm] | A (absorbance) ([2]; DMSO-H2O 4:6) | ε (molar extinction coefficient) ([2]; DMSO-H2O 4:6) | λmax ([2]; DMSO-H2O 4:6) [nm] | A (absorbance) ([2]; DMSO-H2O 6:4) | λmax ([2]; DMSO-H2O 6:4) [nm] | A (absorbance) ([2]; HE (Peg-7 Glyceryl Cocoate)) | A (absorbance) ([2]; MeOH) | ε (molar extinction coefficient) ([2]; MeOH) | λmax ([2]; MeOH) [nm] | melting point [°C] | inhibition at 100 µg/mL [1] [%] | inhibition at 100 µg/mL (Trichophyton tonsurans) [%] | IC50 (CEM cells) [µM] | IC50 (HEK293T cells) [µM] | other results
1 | c1c[nH]c(-c2nc3ccccc3s2)c1 [Compound 8a, 2-(1H-Pyrrol-2-Yl)benzothiazole] | 65 ± 2 | 87 ± 18 | 41 ± 4 | 2.360 | 29500.00 | 333.40 | 2.35 | 31333.333 | 333.70 | 1.51 | 334.20 | 0.79 | 1.540 | 23692.31 | 329.40 | 132 | 10 ± 0.51 | 7.46 ± 0.05 | > 100 | 68 ± 14 | ε (molar extinction coefficient) ([2]; DMSO-H2O 6:4): 23239.769; ε (molar extinction coefficient) ([2]; HE (Peg-7 Glyceryl Cocoate)): 12153.846; λmax ([2]; HE (Peg-7 Glyceryl Cocoate)): 332.80 nm
2 | NS(=O)(=O)c1ccc2nc(-c3cccs3)sc2c1 [Compound 10c, 2-(Thiophen-2-Yl)benzothiazole-6-Sulfonamide] | > 100 | 13 ± 3 | > 100 | 0.890 | 20273.35 | 336.50 |  |  |  |  |  |  | 0.430 | 9704.99 | 333.17 | > 250 | 10.92 ± 0.09 | 6.35 ± 0.02 | > 100 | > 100 | 
3 | c1c[nH]c(-c2nc3ccccc3[nH]2)c1 [Lead 10, reference compound] | 37 | 15 ± 9 | 9.7 ± 1.7 |  |  |  |  |  |  |  |  |  |  |  |  |  | 96.3 ± 2.42 | 96.97 ± 0.62 | 14 ± 1 | 31 ± 3 | 

The next lines start with results.

Row | IC50 (HeLa cells) [µM] | IC50 (Mia-Paca2 cells) [µM] | IC50 (SK-Mel 5 cells) [µM] | A (absorbance) ([2]; DMSO) | ε (molar extinction coefficient) ([2]; DMSO) | λmax ([2]; DMSO) [nm] | A (absorbance) ([2]; DMSO-H2O 4:6) | ε (molar extinction coefficient) ([2]; DMSO-H2O 4:6) | λmax ([2]; DMSO-H2O 4:6) [nm] | A (absorbance) ([2]; DMSO-H2O 6:4) | λmax ([2]; DMSO-H2O 6:4) [nm] | A (absorbance) ([2]; HE (Peg-7 Glyceryl Cocoate)) | A (absorbance) ([2]; MeOH) | ε (molar extinction coefficient) ([2]; MeOH) | λmax ([2]; MeOH) [nm] | melting point [°C] | SMILES | inhibition at 100 µg/mL [1] [%] | inhibition at 100 µg/mL (Trichophyton tonsurans) [%] | IC50 (CEM cells) [µM] | IC50 (HEK293T cells) [µM] | other results
4 | > 100 | > 100 | 98 ± 2 | 1.620 | 21715.82 | 322.10 | 2.43 | 34863.702 | 322.77 | 1.95 | 323.00 | 1.18 | 2.750 | 32505.91 | 316.40 | 103 | c1coc(-c2nc3ccccc3s2)c1 [Compound 9a, 2-(Furan-2-Yl)benzothiazole] | 54 ± 0.99 | 57.9 ± 0.76 | 41 ± 5 | > 100 | ε (molar extinction coefficient) ([2]; HE (Peg-7 Glyceryl Cocoate)): 15817.594; λmax ([2]; HE (Peg-7 Glyceryl Cocoate)): 320.70 nm
5 | > 100 | > 100 | 50 ± 5 | 0.880 | 12735.17 | 321.80 | 0.75 | 12520.868 | 322.67 | 1.29 | 323.00 | 1.32 | 0.760 | 9706.26 | 319.50 | 99 | c1csc(-c2nc3ccccc3s2)c1 [Compound 10a, 2-(Thiophen-2-Yl)benzothiazole] | 61.95 ± 0.44 | 64.5 ± 0.92 | 45 ± 3 | > 100 | ε (molar extinction coefficient) ([2]; DMSO-H2O 6:4): 21535.893; ε (molar extinction coefficient) ([2]; HE (Peg-7 Glyceryl Cocoate)): 14316.703; λmax ([2]; HE (Peg-7 Glyceryl Cocoate)): 320.30 nm
